The values that follow come from patent publication US20240052305A1, “CHEMICAL INDUCTION METHOD FOR PHOTORECEPTOR NEURON CELLS” (IREGENE THERAPEUTICS LTD, priority 2020, published 2024).

Entries after “also recorded” stand apart in the source; their conditions may differ.

The subject of series [1] is ectoderm cells. Briefly: Differentiation of ectoderm cells into photoreceptor neuron cells with AM580 (morphology, Q-PCR, immunofluorescence). Type of series: cell-based, human. Here is the method: The ectoderm cells obtained by the NouvNeu system in Example 2 were subjected to directed differentiation in NouvNeu medium. For differentiation, a 6-well culture plate was coated by 50 ug/ml poly-lysine (SIGMA, P6407), incubated in an incubator at 37° C. for more than 3 hours until cells were seeded.
The photoreceptor neuron cell induction medium of the present invention was obtained by supplementing the NouvNeu-basal base medium with 55 nM-25 uM LY2157299 (with an optimal concentration of 7.5 uM) (preferably 100 nM, 300 nM, 500 nM, 700 nM, 900 nM, 1 uM, 2.5 uM, 5 uM, 7.5 uM, 10 uM, 12.5 uM, 15 uM, 17.5 uM, 20 uM or 22 uM) and 0.05-0.95 uM AM580 (Selleck) (with an optimal concentration of 0.5 uM) (preferably 0.08 uM, 0.09 uM, 0.1 uM, 0.2 uM, 0.3 uM, 0.5 uM, 0.6 uM, 0.7 uM, 0.8 uM, 0.9 uM). The cells were cultured until photoreceptor neuron cell were formed. A control experiment was performed by adding 0.5 uM retinoic acid to the NouvNeu medium, hereinafter referred to as RA.
The screening test of AM580 concentration was carried out with reference to Example 2.3, and the expression difference of photoreceptor neuron cells obtained by using different concentrations of AM580 in the AM580 induction method and the LSB induction method was compared. See Table 2 and Table 4 for the details of primers used. […] In combination with the effect of AM580 on the expression of photoreceptor neuron-specific genes shown in FIG. 4, it could be concluded that the concentrations of AM580 used in the present invention are within the range of optimal concentration.
The medium was replaced with fresh medium every 3 days until day 21. The conditions for culture were at 37° C., 5% CO2 (Panasonic, MCO-18AC). After the induction was completed, the samples in experimental group and control group were respectively identified by immunofluorescence staining as follows: cells were fixed with 4% paraformaldehyde at room temperature for 40 minutes, washed twice with DPBS buffer; then permeabilized with 0.1% Triton X-100 for 5 minutes, washed twice with DPBS buffer; then incubated overnight at 4° C. with DPBS buffer containing 10% horse serum and 0.1% Triton X-100; added with a primary antibody diluted in DPBS buffer containing 2% horse serum and 0.1% Triton X-100, incubated at 37° C. for two hours, and washed three times with DPBS buffer, added with a secondary antibody diluted in DPBS buffer containing 2% horse serum and 0.1% Triton X-100, and then photographed.
Transcription changes of different marker genes during induction from ectoderm cells to photoreceptor neuron cells were detected by Q-PCR. The photoreceptor cells obtained by using the present invention and different concentrations of AM580, and the photoreceptor cells obtained by the RA control induction method were respectively extracted with RNeasy Mini or Micro Kit (QIAGEN) for total RNA, and cDNA was synthesized by […] RNA via SuperScript III First-Strand Synthesis System (Invitrogen). SYBR Premix Ex Taq (TaKaRa) and Thermal Cycler Dice Real Time System (TaKaRa) were used for labeling and reaction of Quantitative PCR, and beta-Actin was used as internal control. All data were analyzed by delta-Ct method. Three replicates were used for each group of experiments, and ANOVA was performed.

Series [2] has as its system ectoderm cells. As to the kind of experiment: Differentiation of the ectoderm cells into neural stem cells (neural rosettes, immunofluorescence, Q-PCR). The format is cell-based, human. The procedure:
Ectoderm cells could be further cultured to form neural stem cells. In order to identify this ability of ectoderm cells, the ectoderm cells obtained in Example 2.1 were further cultured in vitro by using a NouvNeu-basal base medium supplemented with 7.5 uM LY2157299 and 0.5-20 uM JW55 (with an optimal concentration of 5 uM) until a neural rosette-like structure was formed. The LSB induction method was used as a control. […]
Transcription changes of different marker genes during induction from ectoderm cells to neural stem cells were detected by Q-PCR. […] SYBR Premix Ex Taq (TaKaRa) and Thermal Cycler Dice Real Time System (TaKaRa) were used for labeling and reaction by Quantitative PCR, and beta-Actin was used as internal control. All data were analyzed by delta-Ct method. […]

Series [3] concerns human pluripotent stem cells. As to the kind of experiment: Chemical induction of ectoderm cells from pluripotent stem cells with different concentrations of LY2157299 (morphology, Q-PCR). Type of series: cell-based. Here is the method: The ectoderm cell induction medium of the present invention was obtained by supplementing the NouvNeu-basal base medium with 55 nM-25 uM LY2157299 (Selleck) (with an optimal concentration of 7.5 uM) (preferably 100 nM, 300 nM, 500 nM, 700 nM, 900 nM, 1 uM, 2.5 uM, 5 uM, 7.5 uM, 10 uM, 12.5 uM, 15 uM, 17.5 uM, 20 uM or 22 uM). An induction method using said ectoderm cell induction medium was hereinafter referred to as a LY induction method.
Ectoderm cells were derived from human pluripotent stem cells, including embryogenic pluripotent stem cells, such as H9 cell line and human induced pluripotent stem cells. Human induced pluripotent stem cells were obtained by reprogramming from CD34+ cells according to “Reprogrammed culture medium and culture method of reprogrammed induced multipotential stem cell” (ZL 201910050800.7). In the present invention, “induced pluripotent stem cells” and “pluripotent stem cells” were used interchangeably.
During the induction of ectoderm cells, a 6-well culture plate was coated by using 50 ug/ml polylysine (SIGMA, P6407), and incubated in an incubator at 37° C. for more than 3 hours; then further coated by 5 ug/ml laminin (Laminin, I2020, SIGMA ALDRICH), and incubated in an incubator at 37° C. for more than 3 hours after plating. After the pluripotent stem cells reached 70% coverage, they were digested with EDTA at 37° C. for 5 min, and the cell digestion was terminated with DMEM. After washing and centrifugation, the cells were re-plated in the T25 culture plate at 2×10^5 cells per flask. The neural stem cell induction medium of the present invention was used for induction, and replaced with fresh induction medium every day until lamellar ectoderm cells were formed.
The effect of different concentrations of LY2157299 on the formation of ectoderm cells was detected by Q-PCR. The ectoderm cells obtained from the induced pluripotent stem cells in Example 2 by using different concentrations of LY2157299 in the LY induction method and LSB induction method were respectively extracted with RNeasy Mini or Micro Kit (QIAGEN) for total RNA, and cDNA was synthesized by […] RNA via SuperScript III First-Strand Synthesis System (Invitrogen). SYBR Premix Ex Taq (TaKaRa) and Thermal Cycler Dice Real Time System (TaKaRa) were used for labeling and reaction by Quantitative PCR, and beta-Actin was used as internal control. All data were analyzed by delta-Ct method. Triplicates were used for each group of experiments, and ANOVA was performed.

For series [4], the system named is photoreceptor cells. As to the kind of experiment: Cyquant cell viability assay during induction of photoreceptor cells. The format is cell-based, human. The conditions noted are these: Cyquant test, FIGS. 6e-6g. The source says: The Cyquant test was also used to detect the effect of progesterone, putrescine and Optiferrin on cell viability, so as to study the effects of different concentrations of progesterone, putrescine and Optiferrin on the physiological state of cells during the induction of photoreceptor cells.

The nature of series [5]: Osmotic pressure of the culture system by freezing point osmometer. Type of series: physicochemical. On the set-up: osmotic pressure of the culture system: dose or concentration left out as unconfirmed. Here is the method: A screening culture system was prepared by using different concentration gradients of sodium chloride while maintaining the optimal concentration of other components. The effect of different concentrations of sodium chloride on the osmotic pressure of culture system was detected by using an automatic freezing point osmometer (FM-8P, Shanghai Medical University Instrument Co., Ltd.), and specific operations were performed according to the product manual (FM-8P, Shanghai Medical University Instrument Co., Ltd.).

Series [6] concerns human pluripotent stem cells. Briefly: Cyquant cell viability assay during ectoderm induction, long-term culture. The format is cell-based. The conditions noted are these: for number of cells induced versus concentration: Cyquant test, FIGS. 6c-6d. Here is the method:
A screening culture system was prepared by using different concentration gradients of insulin or vitamin C while maintaining the optimal concentration of other components. Ectoderm induction was performed according to the method in Example 2.1. The cell viability was quantitatively detected by Cyquant assay to study the effects of insulin or vitamin C on the physiological state of cells during long-term cell culture. A 96-well opaque cell culture plate was coated, and then the cells are inoculated at 5×10^4 cells per well, wherein parallel triplicates were set up (the average of the three groups was calculated as the data). The steps in Example 2.1 were repeated with the culture conditions of 37° C., 5% CO2. Samples were taken at day 1, day 5, day 10 and day 20, respectively, and the cell viability detection was carried out by CyQuant Kit (Invitrogen, X12223) according to the instruction manual, and data were read by SpectraMax i3 Multi-Mode Microplate Reader (VWR, ID3-STD). […] Therefore, in combination with cost factors, the insulin or vitamin C in the basal medium of the present invention was the optimal concentration.

For the molecule `CC1(C)CCC(C)(C)c2cc(C(=O)Nc3ccc(C(=O)O)cc3)ccc21` [AM580], in series [1] (Q-PCR, FIG. 3f), the “marker PAX6 versus concentration” value is given as “positively correlated”. For the same molecule, the “apoptotic markers versus concentration” value in series [1] (Q-PCR, FIG. 3g) was “positively correlated”. In addition, in series [1] (Q-PCR, compared with RA control, FIG. 4), the “expression of photoreceptor cell-specific marker genes” value is “could induce the expression of multiple photoreceptor cell-specific marker genes, which was not significantly lower than that of the RA control”. The “morphology of differentiated cells” value in series [1] (appropriate concentration, FIG. 3d) was “uniformly differentiated photoreceptor cells with short axons”; in series [1] (excessively high concentration, FIG. 3e) it was “results in stress in differentiated cells”; in series [1] (low concentration, FIG. 3c) it was “differentiation into mixed cells including cortical neurons”. Also, the apoptosis result in series [1] (concentration too high) is “lead to apoptosis”. Besides, the “protein expression of photoreceptor markers” value in series [1] (fluorescent immunoassay, FIG. 5) was “same protein expression patterns with that in the RA control group”. For the same molecule, the “optimal concentration of AM580” value in series [1] (induction of photoreceptor cells, screening of different concentrations (FIG. 3)) was found to be 0.5 µM.

For the molecule `Cc1cccc(-c2nn3c(c2-c2ccnc4ccc(C(N)=O)cc24)CCC3)n1` [LY2157299, 4-(2-(6-methylpyridin-2-yl)-5,6-dihydro-4H-pyrrolo[1,2-b]pyrazol-3-yl) quinoline-6-carboxamide], in series [2] (Q-PCR, FIGS. 1e-1f), the “expression of neural stem cell markers compared with the control method” value is “slightly increase the expression of neural stem cell markers”. Moreover, the “neural stem cell markers after formation of neural rosettes” value in series [2] (immunofluorescence staining, FIGS. 1a-1d) is “can express neural stem cell markers Pax6 and Nestin”. The “ectoderm markers versus concentration” value in series [3] (Q-PCR, FIG. 2f) is given as “positively correlated”. Besides, in series [3] (Q-PCR, FIG. 2g), the “apoptotic markers versus concentration” value is reported as “positively correlated”. The “formation of ectoderm cells (morphology)” value in series [3] (appropriate concentration, FIG. 2d) is reported as “uniformly differentiated ectoderm cells”; in series [3] (excessively high concentration, FIG. 2e), “promote the differentiation of ectoderm cells into neural cells”; in series [3] (low concentration, FIG. 2c), “differentiation into mixed cell including ectodermal cells; also recorded: the ectoderm could not be completely formed”. Moreover, the cell apoptosis entry in series [3] (high concentration) was “induced cell apoptosis”. The “optimal concentration of LY2157299” value in series [3] (induction of ectoderm cells, screening of different concentrations (FIG. 2)) was found to be 7.5 µM.

For `CC(=O)[C@H]1CC[C@H]2[C@@H]3CCC4=CC(=O)CC[C@]4(C)[C@H]3CC[C@]12C` [progesterone], the “cell proliferation rate versus concentration” value in series [4] was “positively correlated”.

In the case of `NCCCCN` [putrescine], the “cell proliferation rate versus concentration” value in series [4] was “positively correlated”.

Consider `[Cl-].[Na+]` [sodium chloride], for which the “osmotic pressure of the culture system versus concentration” value in series [5] (concentration gradients, FIG. 6a) is “increased linearly”. In addition, the “osmotic pressure of the culture system” value in series [5] (sodium chloride concentration) is reported as > 320 mOsm/kg.

`O=C1O[C@H]([C@@H](O)CO)C(O)=C1O` [vitamin C, L-ascorbic acid]: the “number of cells induced versus concentration” value in series [6] is listed as “positively correlated”. In series [6] (high concentration), the “number of cells compared with the optimal concentration” value is “not significantly different” and the “state of cells in the late stage of induction” value is “caused the cells to shed in pieces”.

Consider “Optiferrin: component of the NouvNeu-basal base medium (SIGMA)”, for which, in series [4], the “cell proliferation rate versus concentration” value is reported as “positively correlated”.

Consider “insulin: component of the NouvNeu-basal base medium”, for which the “number of cells induced versus concentration” value in series [6] was “positively correlated”. Further, the “number of cells compared with the optimal concentration” value in series [6] (high concentration) is “not significantly different”.
